Laboratory results: US7230002B2, “Dipeptidyl peptidase IV inhibitors; processes for their preparation and compositions thereof” (Glenmark Pharmaceuticals Ltd., priority 2004, dated 2007)
Structures can show the parent of a compound that is named as a salt.

Biological target: T1, human recombinant Dipeptidyl peptidase IV enzyme (Homo sapiens, UniProt P27487)
T1 construct: purchased R & D Systems
Experiment: In-vitro DPP-IV assay (cleavage of Gly-Pro-AMC)
Format: biochemical
Details: for IC50: n = 3, substrate Gly-Pro-AMC, 30° C., 30 minutes, read-out: DPP-IV inhibition IC50; for inhibition at 0.3 µM: at 300 nM, n = 3, read-out: DPP-IV inhibition, percent inhibition at 300 nM
Procedure: Protocol for In-Vitro DPP-IV Assay
DPPIV activity was determined by the cleavage rate of 7-amino-4-methyl coumarin (AMC) from synthetic substrate Glycyl-Prolyl-AMC. In brief, the assay was conducted by adding 10 ng of human recombinant Dipeptidyl peptidase IV enzyme (DPPIV, available commercially from R & D Systems) in 50 μl of the assay buffer (25 mM Tris, pH 7.4, 140 mM NaCl, 10 mM KCl, 1% BSA) to 96 well black flat bottom microtiter plates. The reaction was initiated by adding 50 μl of 100 μM substrate Gly-Pro-AMC. The incubation was carried out in the kinetic mode at 30° C. for 30 minutes. Fluorescence was measured using Fluorostar at excitation filter of 380 nm and emission filter of 460 nm). Test compounds and solvent controls were added as 1 μl additions. A standard curve of free amino methyl coumarin (AMC) was generated using 0–100 μM AMC in the assay buffer. The curve generated, which was linear was used for the interpolation of catalytic activity.
Test compounds dissolved in DMSO at 5–6 concentrations were tested in duplicate along with the solvent control and blank samples. Percent inhibition was calculated at each concentration with respect to the solvent control sample (no test compound added). IC50 values were calculated from 3 experiments using the prism software.

T1 sequence (P27487 whole entry): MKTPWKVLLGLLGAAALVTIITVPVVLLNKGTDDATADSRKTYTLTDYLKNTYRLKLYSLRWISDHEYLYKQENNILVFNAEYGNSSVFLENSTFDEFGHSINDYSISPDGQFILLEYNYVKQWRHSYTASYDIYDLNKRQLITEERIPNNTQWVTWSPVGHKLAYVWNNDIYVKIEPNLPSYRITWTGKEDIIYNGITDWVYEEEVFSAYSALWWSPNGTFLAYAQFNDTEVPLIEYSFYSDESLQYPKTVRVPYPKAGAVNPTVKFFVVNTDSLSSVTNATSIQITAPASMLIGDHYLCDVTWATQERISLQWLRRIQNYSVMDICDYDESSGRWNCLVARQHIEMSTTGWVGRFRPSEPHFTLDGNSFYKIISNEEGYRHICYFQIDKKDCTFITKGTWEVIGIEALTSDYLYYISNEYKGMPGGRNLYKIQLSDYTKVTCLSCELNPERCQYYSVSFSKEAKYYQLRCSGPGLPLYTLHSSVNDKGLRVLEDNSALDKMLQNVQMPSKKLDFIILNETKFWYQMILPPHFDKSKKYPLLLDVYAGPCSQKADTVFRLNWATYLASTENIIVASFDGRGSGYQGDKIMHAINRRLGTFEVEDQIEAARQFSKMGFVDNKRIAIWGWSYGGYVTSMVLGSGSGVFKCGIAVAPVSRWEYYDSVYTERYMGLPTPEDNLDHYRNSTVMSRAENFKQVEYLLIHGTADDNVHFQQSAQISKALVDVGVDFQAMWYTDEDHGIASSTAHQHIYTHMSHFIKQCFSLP

Row | Compound | IC50 | inhibition at 0.3 µM
1 | N#Cc1ccc(NCC2CCC(NCC(=O)N3C[C@@H](F)C[C@H]3C#N)C2)nc1 (mixture of isomers) [Example-14, 6-((1SR,3RS)-3-{2-[(2S,4S)-2-Cyano-4-fluoropyrrolidin-1-yl]-2-oxoethylamino}-cyclopentylmethylamino)nicotinonitrile] | 0.00358 µM | –
2 | N#C[C@@H]1CCCN1C(=O)CNC1CCC(CNc2ncccn2)C1 (mixture of isomers) [Example-18, (2S)-1-{2-[(3SR,1RS)-3-(2-Pyrimidinylaminomethyl)cyclopentylamino)acetyl}-pyrrolidine-2-carbonitrile] | 0.0098 µM | –
3 | N#C[C@@H]1CCCN1C(=O)CNC1CCC(CNc2ncccn2)C1 (mixture of isomers) [Example-19, (2S)-1-{2-[(3SR,1RS)-3-(2-Pyrimidinylaminomethyl)cyclopentylamino)acetyl}-pyrrolidine-2-carbonitrile dihydrochloride] | 0.02 µM | –
4 | N#C[C@@H]1CCCN1C(=O)CNC1CCC(CNc2ccc([N+](=O)[O-])c(Cl)c2)C1 (mixture of isomers) [Example-23, (2S)-1-{2-[(3SR,1RS)-3-(3-Chloro-4-nitroanilinomethyl)cyclopentylamino]acetyl}-pyrrolidine-2-carbonitrile] | 0.0146 µM | –
5 | N#C[C@@H]1CCCN1C(=O)CNC1CCC(CNc2ccc([N+](=O)[O-])cc2F)C1 (mixture of isomers) [Example-24, (2S)-1-{2-[(3SR,1RS)-3-(2-Fluoro-4-nitroanilinomethyl)cyclopentylamino]acetyl}-pyrrolidine-2-carbonitrile] | 0.00629 µM | –
6 | N#C[C@@H]1CCCN1C(=O)CNC1CCC(CNc2cc(F)c(F)cc2F)C1 (mixture of isomers) [Example-27, (2S)-1-{2-[(3SR,1RS)-3-(2,4,5-Trifluoroanilinomethyl)cyclopentylamino]acetyl}-pyrrolidine-2-carbonitrile] | 0.0175 µM | –
7 | N#C[C@@H]1CCCN1C(=O)CNC1CCC(CSc2ccccc2)C1 (mixture of isomers) [Example-28, (2S)-1-{2-[(3SR,1RS)-3-Phenylsulfanylmethylcyclopentylamino]acetyl}-pyrrolidine-2-carbonitrile] | 0.0223 µM | –
8 | N#Cc1ccc(SCC2CCC(NCC(=O)N3CCC[C@H]3C#N)C2)nc1 (mixture of isomers) [Example-38, 6-((1SR,3RS)-3-{2-[(2S)-2-Cyanopyrrolidin-1-yl]-2-oxoethylamino}cyclopentyl-methylsulfanyl)nicotinonitrile] | 0.00942 µM | –
9 | N#Cc1ccc(S(=O)(=O)CC2CCC(NCC(=O)N3CCC[C@H]3C#N)C2)nc1 (mixture of isomers) [Example-40, 6-((1SR,3RS)-3-{2-[(2S)-2-Cyanopyrrolidin-1-yl)-2-oxoethylamino}cyclopentyl-methylsulfonyl)nicotinonitrile] | 0.0787 µM | –
10 | N#Cc1ccc(NCC2CCC(NCC(=O)N3CCCC3)C2)nc1 (racemic) [Example-1, cis-(±)-6-(3-[2-(1-Pyrrolidinyl)-2-oxoethylamino]cyclopentylmethylamino)nicotino-nitrile] | – | 6%
11 | N#Cc1ccc(NCC2CCC(NCC(=O)N3CCC[C@H]3C#N)C2)nc1 (mixture of isomers) [Example-3, 6-((1SR,3RS)-3-{2-[(2S)-2-Cyanopyrrolidin-1-yl]-2-oxoethylamino}cyclopentyl-methylamino)nicotinonitrile] | 0.00629 µM | –
12 | N#Cc1ccc(NCC2CCC(NCC(=O)N3CCC[C@H]3C#N)C2)nc1 (mixture of isomers) [Example-4, 6-((1SR,3RS)-3-{2-[(2S)-2-Cyanopyrrolidin-1-yl]-2-oxoethylamino}cyclopentyl-methylamino)nicotinonitrile dihydrochloride] | 0.01 µM | –
13 | N#Cc1ccc(NCC2CCC(NCC(=O)N3CCC[C@H]3C#N)C2)nc1 (mixture of isomers) [Example-5, 6-((1SR,3RS)-3-{2-[(2S)-2-Cyanopyrrolidin-1-yl]-2-oxoethylamino}cyclopentyl-methylamino)nicotinonitrile maleate] | 0.0103 µM | –
14 | N#Cc1ccc(NCC2CCC(NCC(=O)N3CCC[C@H]3C#N)C2)nc1 (mixture of isomers) [Example-7, 6-((1SR,3RS)-3-{2-[(2S)-2-Cyanopyrrolidin-1-yl]-2-oxoethylamino}cyclopentyl-methylamino)nicotinonitrile citrate] | 0.0117 µM | –
15 | N#Cc1ccc(NCC2C=CC(NCC(=O)N3CCC[C@H]3C#N)C2)nc1 (mixture of isomers) [Example-12] | 0.0112 µM | –
16 | N#Cc1ccc(NC[C@@H]2CC[C@@H](NCC(=O)N3CCC[C@H]3C#N)C2)nc1 (racemic) [Example-13, 6-((1RS,3RS)-3-{2-[(2S)-2-Cyanopyrrolidin-1-yl]-2-oxoethylamino}cyclopentyl-methylamino)nicotinonitrile] | 0.0121 µM | –
17 | N#Cc1ccc(NCC2CCC(NCC(=O)N3CSC[C@H]3C#N)C2)nc1 (mixture of isomers) [Example-16, (4S)-3-{2-(1SR,3RS)-3-[(5-Cyano-2-pyridylaminomethyl)cyclopentylamino]acetyl}-1,3-thiazolane-4-carbonitrile dihydrochloride] | 0.00276 µM | –

Row | Compound | IC50 | inhibition at 0.3 µM
18 | N#Cc1ccc(NC[C@@H]2CC[C@@H](NCC(=O)N3CSC[C@H]3C#N)C2)nc1 (racemic) [Example-17, (4S)-3-{2-(1RS,3RS)-3-[(5-Cyano-2-pyridylaminomethyl)cyclopentylamino]acetyl}-1,3-thiazolane-4-carbonitrile dihydrochloride] | 0.00293 µM | –
19 | N#C[C@@H]1CCCN1C(=O)CNC1CCC(CS(=O)(=O)c2ccccc2)C1 (mixture of isomers) [Example-29] | 0.01 µM | –
20 | N#Cc1ccc(SCC2CCC(NCC(=O)N3CCC[C@H]3C#N)C2)nc1 (mixture of isomers) [Example-39, 6-((1SR,3RS)-3-{2-[(2S)-2-Cyanopyrrolidin-1-yl]-2-oxoethylamino}cyclopentyl-methylsulfanyl)nictinonitrile maleate] | 0.0111 µM | –
21 | N#C[C@@H]1CCCN1C(=O)CNC1CCC(COc2ccc([N+](=O)[O-])cc2)C1 (mixture of isomers) [Example-43, (2S)-1-{2-[(3SR,1RS)-3-(4-Nitrophenoxymethyl)cyclopentylamino]acetyl}-pyrro-lidine-2-carbonitrile] | 0.0359 µM | –
22 | N#Cc1ccc(NCC2CCC(NCC(=O)N3CCSC3)C2)nc1 (stereo not drawn) [Example-2] | – | 17%
23 | N#Cc1ccc(NC[C@H]2CC[C@@H](NCC(=O)N3CCC[C@H]3C#N)C2)nc1 [Example-8, 6-((1S,3R)-3-{2-[(2S)-2-Cyanopyrrolidin-1-yl]-2-oxoethylamino}cyclopentylmethyl-amino)nicotinonitrile] | 0.0106 µM | –
24 | N#Cc1ccc(NC[C@H]2CC[C@@H](NCC(=O)N3CCC[C@H]3C#N)C2)nc1 [Example-9, 6-((1S,3R)-3-{2-[(2S)-2-Cyanopyrrolidin-1-yl]-2-oxoethylamino}cyclopentylmethyl-amino)nicotinonitrile dihydrochloride] | 0.00627 µM | –
25 | N#Cc1ccc(NC[C@@H]2CC[C@H](NCC(=O)N3CCC[C@H]3C#N)C2)nc1 [Example-10, 6-((1R,3S)-3-{2-[(2S)-2-Cyanopyrrolidin-1-yl]-2-oxoethylamino}cyclopentylmethyl-amino)nicotinonitrile] | 0.00781 µM | –
26 | N#Cc1ccc(NC[C@@H]2CC[C@H](NCC(=O)N3CCC[C@H]3C#N)C2)nc1 [Example-11, 6-((1R,3S)-3-{2-[(2S)-2-Cyanopyrrolidin-1-yl]-2-oxoethylamino}cyclopentylmethyl-amino)nicotinonitrile dihydrochloride] | 0.0139 µM | –
27 | N#Cc1ccc(NC[C@H]2CC[C@@H](NCC(=O)N3C[C@@H](F)C[C@H]3C#N)C2)nc1 [Example-15, 6-((1S,3R)-3-{2-[(2S,4S)-2-Cyano-4-fluoropyrrolidin-1-yl]-2-oxoethylamino}cyclo-pentylmethylamino)nicotinonitrile] | 0.00317 µM | –
28 | N#C[C@@H]1CCCN1C(=O)CN[C@@H]1CC[C@H](CNc2ncccn2)C1 [Example-20, (2S)-1-{2-[(3S,1R)-3-(2-Pyrimidinylaminomethyl)cyclopentylamino)acetyl}-pyrrolidine-2-carbonitrile] | 0.0413 µM | –
29 | N#C[C@@H]1CCCN1C(=O)CN[C@H]1CC[C@@H](CNc2ncccn2)C1 [Example-21] | 0.00674 µM | –
30 | N#C[C@@H]1CCCN1C(=O)CN[C@@H]1CC[C@H](CNc2nnnn2-c2ccccc2)C1 [Example-22, (2S)-1-{2-[(3S,1R)-3-(1-Phenyl-1H-1,2,3,4-tetraazol-5-ylaminomethyl)cyclopentyl-amino]acetyl}-pyrrolidine-2-carbonitrile] | 0.0104 µM | –
31 | N#C[C@@H]1CCCN1C(=O)CN[C@@H]1CC[C@H](CNc2ccc([N+](=O)[O-])cc2F)C1 [Example-25, (2S)-1-{2-[(1R,3S)-3-(2-Fluoro-4-nitroanilinmethyl)cyclopentylamino]acetyl}-pyrrolidine-2-carbonitrile] | 0.00859 µM | –
32 | N#C[C@@H]1C[C@H](F)CN1C(=O)CN[C@@H]1CC[C@H](CNc2ccc([N+](=O)[O-])cc2F)C1 [Example-26] | 0.00516 µM | –
33 | N#C[C@@H]1CCCN1C(=O)CN[C@@H]1CC[C@H](CSc2ccccc2)C1 [Example-30, (2S)-1-{2-[(3S,1R)-3-Phenylsulfanylmethylcycopentylamino]acetytl}-pyrrolidine-2-carbonitrile] | 0.0634 µM | –
